pKi: −log10 of the molar value.
What was measured:
[1] = target: T1, Melatonin receptor type 1A (Homo sapiens, UniProt P48039); assay: Binding affinity for human recombinant Melatonin receptor type 1 expressed in NIH3T3 cells; assay type: cell-based
[2] = target: T2, Melatonin receptor type 1B (Homo sapiens, UniProt P49286); assay: Binding affinity for human recombinant Melatonin receptor type 2 expressed in NIH3T3 cells; assay type: cell-based
T2 sequence (P49286 whole entry): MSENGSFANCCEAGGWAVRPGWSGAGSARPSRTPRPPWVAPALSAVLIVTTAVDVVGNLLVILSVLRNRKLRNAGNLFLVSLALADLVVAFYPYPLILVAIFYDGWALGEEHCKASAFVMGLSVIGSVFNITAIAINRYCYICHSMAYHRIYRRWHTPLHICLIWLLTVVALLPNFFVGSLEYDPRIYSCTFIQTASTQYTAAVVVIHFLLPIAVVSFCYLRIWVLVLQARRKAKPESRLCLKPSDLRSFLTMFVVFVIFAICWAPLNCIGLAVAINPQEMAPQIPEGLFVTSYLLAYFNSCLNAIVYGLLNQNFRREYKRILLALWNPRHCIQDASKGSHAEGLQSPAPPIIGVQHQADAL

[3] = target: T1, Melatonin receptor type 1A
[4] = target: T3, Melatonin receptor type 1B (Homo sapiens) (UniProt P49286)
T3 sequence (whole entry): T2 sequence (P49286 whole entry)

T1 sequence (P48039 whole entry): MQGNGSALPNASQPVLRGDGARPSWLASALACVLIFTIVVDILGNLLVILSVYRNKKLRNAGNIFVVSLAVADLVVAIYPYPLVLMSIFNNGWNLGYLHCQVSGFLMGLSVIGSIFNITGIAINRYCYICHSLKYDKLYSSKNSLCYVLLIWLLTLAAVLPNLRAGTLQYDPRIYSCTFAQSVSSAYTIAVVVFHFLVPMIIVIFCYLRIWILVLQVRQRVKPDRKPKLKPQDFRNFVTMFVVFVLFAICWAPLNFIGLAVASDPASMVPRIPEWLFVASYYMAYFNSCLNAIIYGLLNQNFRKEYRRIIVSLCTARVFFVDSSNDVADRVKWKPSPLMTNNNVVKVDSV

Row | SMILES | pKi [1] | pKi [2] | IAr [3] | IAr [4]
1 | CC(=O)NCC(=O)N1c2ccccc2C=Cc2ccccc21 | 4.69 | 4.96 | – | –
2 | CCCC(=O)NCC1Cc2ccccc2Cc2ccc(OC)cc21 (configuration not stated) | 8.89 | 9.61 | -0.09 | -0.17
3 | COc1ccc2c(c1)C(CNC(C)=O)Cc1ccccc1C2=O (configuration not stated) | 8.52 | 9.05 | -0.14 | -0.08
4 | COc1ccc2c(c1)C(CNC(C)=O)Cc1ccccc1C2 (configuration not stated) | 8.21 | 9.18 | -0.18 | -0.55
5 | COc1ccc2[nH]cc(CCNC(C)=O)c2c1 | – | – | 1 | –
6 | COc1ccc2c(c1)C(CCNC(C)=O)Cc1ccccc1C2 (configuration not stated) | 6.79 | 7.40 | -0.07 | 0.01

Next, values leading:

Row | pKi [1] | pKi [2] | IAr [3] | IAr [4] | SMILES
7 | 8.87 | 9.79 | -0.1 | -0.15 | CCC(=O)NCC1Cc2ccccc2Cc2ccc(OC)cc21 (configuration not stated)
8 | 6.26 | 6.70 | 0.03 | 0.13 | CCC(=O)NCCN1c2ccccc2CCc2ccccc21
9 | 6.62 | 7.52 | 0.03 | -0.32 | CC(=O)NCC1Cc2ccccc2Cc2ccccc21 (configuration not stated)
10 | 6.26 | 7.07 | 0.02 | -0.09 | CC(=O)NCC1=Cc2ccccc2Cc2ccccc21
11 | 6.41 | 7.05 | 0.21 | 0.69 | CC(=O)NCCC1Cc2ccccc2Cc2ccccc21 (configuration not stated)
12 | 7.24 | 7.42 | -0.04 | -0.1 | CCC(=O)NCCN1c2ccccc2C=Cc2ccc(OC)cc21
13 | 6.95 | 6.90 | 0.01 | -0.03 | CC(=O)NCCN1c2ccccc2C=Cc2ccccc21
